Where a name gives a salt, the structure may show the parent alone.

The term EC50 denotes the midpoint of the concentration-response curve. Low values mean higher potency in that assay, high ones lower potency in that assay.

For one assay, the system named is RSV Long strain. The assay is described as follows: Viral cytopathic effect (CPE) assay, anti-RSV activity. The assay is classed as cell-based, Respiratory Syncytial Virus. The note with it: RSV Long strain (ATCC); cell viability after 6 days, Cell Counting kit-8. In short, it runs like this:
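EC50 was derived from CCK-8 viability at 450/630 nm measured 6 days post-infection. Infection used enough RSV Long strain for approximately 80–90% cytopathic effect, in the presence of half-log serially diluted compound. Cells were plated the day before at 6×10^3 per well in DMEM/10% FBS.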
`Cc1ccc2nc(N3CC[S+]([O-])c4ccccc4C3)nc(NCC3(CN)COC3)c2c1` (single isomer, unassigned; (+)) [Example 62-3, (+)-N-{[3-(Aminomethyl)oxetan-3-yl]methyl}-6-methyl-2-[1-oxido-2,3-dihydro-1,4-benzothiazepin-4(5H)-yl]quinazolin-4-amine]: the EC50 was found to be 0.0013 µM.

The same assay, now with this note: human respiratory syncytial virus, 144 h, RSV Long strain (ATCC); cell viability after 6 days, Cell Counting kit-8.
In turn, `NC1(CNc2cc(N3CCS(=O)(=O)c4ccccc4C3)nc3ccccc23)COC1` [Example 3-48, N-[(3-Aminooxetan-3-yl)methyl]-2-(1,1-dioxido-2,3-dihydro-1,4-benzothiazepin-4(5H)-yl)quinolin-4-amine] gave an EC50 of 0.023 µM. The molecule `Cc1cccc2c(NCCCCCCCCCCN)cc(N3CCS(=O)(=O)c4ccccc4C3)nc12` [Example 12-4, N-[2-(1,1-Dioxido-2,3-dihydro-1,4-benzothiazepin-4(5H)-yl)-8-methylquinolin-4-yl]decane-1,10-diamine] returned an EC50 of 0.764 µM.

In the case of `Cc1ccc2nc(N3CCS(=O)(=O)c4ccccc4C3)cc(NC(=O)c3cccnc3)c2c1` [Example 47-4, N-[2-(1,1-Dioxido-2,3-dihydro-1,4-benzothiazepin-4(5H)-yl)-6-methylquinolin-4-yl]pyridine-3-carboxamide], it took 0.993 µM to reach a half-maximal effect (EC50).

Molecule `CC(C)(N)CNc1cc(N2CCS(=O)(=O)c3ccccc3C2)nc2ccc(Cl)cc12` [Example 3-26, N^˜1^˜-[6-Chloro-2-(1,1-dioxido-2,3-dihydro-1,4-benzothiazepin-4(5H)-yl)quinolin-4-yl]-2-methylpropane-1,2-diamine] came in with an EC50 of 0.876 µM. In turn, `NC1CCN(c2cc(N3CCS(=O)(=O)c4ccccc4C3)nc3ccncc23)C1` (stereo not drawn) [Example 9-28, 1-[2-(1,1-Dioxido-2,3-dihydro-1,4-benzothiazepin-4(5H)-yl)-1,6-naphthyridin-4-yl]pyrrolidin-3-amine] returned an EC50 of 0.003 µM. For the molecule `NC1(CNc2nc(N3CC[S+]([O-])c4ccccc4C3)nc3ccccc23)COC1` (stereo not drawn) [Example 57-2, N-[(3-Aminooxetan-3-yl)methyl]-2-(1-oxido-2,3-dihydro-1,4-benzothiazepin-4(5H)-yl)quinazolin-4-amine], the response was half-maximal at 0.018 µM (EC50). `NCCNc1cc(N2Cc3ccc(Br)cc3CCC2=O)nc2ccccc12` [Example 124, 2-{4-[(2-Aminoethyl)amino]quinolin-2-yl}-7-bromo-1,2,4,5-tetrahydro-3H-2-benz azepin-3-one] displayed an EC50 of 6.1 µM.

As for `NC1(CNc2cc(N3CCS(=O)(=O)c4ccccc4C3)nc3ccc(Cl)cc23)COC1` [Example 3-22, N-[(3-Aminooxetan-3-yl)methyl]-6-chloro-2-(1,1-dioxido-2,3-dihydro-1,4-benzothiazepin-4(5H)-yl)quinolin-4-amine], a half-maximal effect (EC50) was put at 0.032 µM. Still for that read-out and setting: for `NCCNc1cc(N2CCCc3ccccc3C2)nc2ccc(OC(F)(F)F)cc12` [Example 118-23, N-[2-(1,3,4,5-Tetrahydro-2H-2-benzazepin-2-yl)-6-(trifluoromethoxy)quinolin-4-yl]ethane-1,2-diamine] the value was 2.64 µM; for `Cc1ccc2nc(N3CCS(=O)(=O)c4ccccc4C3)cc(NC(=O)C3CCNCC3)c2c1` [Example 3-62, N-[2-(1,1-Dioxido-2,3-dihydro-1,4-benzothiazepin-4(5H)-yl)-6-methylquinolin-4-yl]piperidine-4-carboxamide], 0.589 µM; for `Cc1ccc2nc(N3CCS(=O)(=O)c4ccccc4C3)cc(NCC3(C)CN=C(N)O3)c2c1` (stereo not drawn) [Example 38-2, N-[(2-Amino-5-methyl-4,5-dihydro-1,3-oxazol-5-yl)methyl]-2-(1,1-dioxido-2,3-dihydro-1,4-benzothiazepin-4(5H)-yl)-6-methylquinolin-4-amine], 0.302 µM.

Regarding `Cc1ccc2nc(N3CCS(=O)(=O)c4ccccc4C3)nc(NCC(F)CN)c2c1` (stereo not drawn) [Example 56-5, N-[2-(1,1-Dioxido-2,3-dihydro-1,4-benzothiazepin-4(5H)-yl)-6-methylquinazolin-4-yl]-2-fluoropropane-1,3-diamine], a half-maximal effect (EC50) was put at 0.022 µM. Same read-out and setting: for `Cc1ccc2nc(N3CCS(=O)(=O)c4ccccc4C3)cc(NCCN3CCNCC3)c2c1` [Example 3-28, 2-(1,1-Dioxido-2,3-dihydro-1,4-benzothiazepin-4(5H)-yl)-6-methyl-N-[2-(piperazin-1-yl)ethyl]quinolin-4-amine] the value was 0.149 µM.

The molecule `Cc1ccc2nc(N3CCS(=O)(=O)c4cc(Oc5ccccc5)ccc4C3)cc(NCC3(N)COC3)c2c1` [Example 35, N-[(3-Aminooxetan-3-yl)methyl]-2-(1,1-dioxido-8-phenoxy-2,3-dihydro-1,4-benzothiazepin-4(5H)-yl)-6-methylquinolin-4-amine] registered an EC50 of 2.79 µM.

For the molecule `CNC(=O)CNc1cc(N2CCS(=O)(=O)c3ccccc3C2)nc2ccc(C)cc12` [Example 36-6, N^˜2^˜-[2-(1,1-Dioxido-2,3-dihydro-1,4-benzothiazepin-4(5H)-yl)-6-methylquinolin-4-yl]-N-methylglycinamide], the midpoint of the response, the EC50, lay at 0.264 µM. Still for that read-out and setting: for `NCCNc1cc(N2CCCc3cc(Br)ccc3C2)nc2ccc(Cl)cc12` [Example 118-1, N-[2-(7-Bromo-1,3,4,5-tetrahydro-2H-2-benzazepin-2-yl)-6-chloroquinolin-4-yl]ethane-1,2-diamine] the value was 1.98 µM.

Consider `NC1(CNc2nc(N3CCSc4ccccc4C3)nc3ccc(Cl)cc23)COC1` [Example 57-4, N-[(3-Aminooxetan-3-yl)methyl]-6-chloro-2-(2,3-dihydro-1,4-benzothiazepin-4(5H)-yl)quinazolin-4-amine], for which the EC50 was found to be 0.239 µM. `Cc1ccc2nc(N3CCC(F)(F)c4ccccc4C3)cc(NCC(O)CN)c2c1` (stereo not drawn) [Example 110-4, 1-Amino-3-{[2-(5,5-difluoro-1,3,4,5-tetrahydro-2H-2-benzazepin-2-yl)-6-methylquinolin-4-yl]amino}propan-2-ol] displayed an EC50 of 0.06 µM. In turn, `Cc1ccc2nc(N3CCS(=O)(=O)c4ccccc4C3)cc(N3CC4CC3C4N)c2c1` (stereo not drawn) [Example 19-8, 2-[2-(1,1-Dioxido-2,3-dihydro-1,4-benzothiazepin-4(5H)-yl)-6-methylquinolin-4-yl]-2-azabicyclo[2.1.1]hexan-5-amine] returned an EC50 of 2.75 µM.

`NCCNc1cc(N2CCCc3ccccc3C2)nc2ccc(OC(F)F)cc12` [Example 118-18, N-[6-(Difluoromethoxy)-2-(1,3,4,5-tetrahydro-2H-2-benzazepin-2-yl)quinolin-4-yl]ethane-1,2-diamine] registered an EC50 of 0.973 µM. Molecule `Cc1ccc2nc(N3CCS(=O)(=O)c4ccccc4C3)cc(NC[C@H](N)CO)c2c1` [Example 37-1, (2S)-2-Amino-3-{[2-(1,1-dioxido-2,3-dihydro-1,4-benzothiazepin-4(5H)-yl)-6-methylquinolin-4-yl]amino}propan-1-ol] came in with an EC50 of 0.005 µM.

With `Cc1ccc2nc(N3CCS(=O)(=O)c4ccccc4C3)cc(NS(=O)(=O)C(F)(F)F)c2c1` [Example 3-57, N-[2-(1,1-Dioxido-2,3-dihydro-1,4-benzothiazepin-4(5H)-yl)-6-methylquinolin-4-yl]-1,1,1-trifluoromethanesulfonamide hydrochloride], it took 7.53 µM to reach a half-maximal effect (EC50). Consider `COc1ccc2c(c1)CN(c1cc(NCC3(CN)COC3)c3ccccc3n1)CCS2(=O)=O` [Example 3-4, N-{[3-(Aminomethyl)oxetan-3-yl]methyl}-2-(7-methoxy-1,1-dioxido-2,3-dihydro-1,4-benzothiazepin-4(5H)-yl)-quinolin-4-amine], for which the EC50 came out at 0.006 µM.

For the origin of these results see patent US8871756B2 (Hoffmann-La Roche Inc., priority 2011, dated 2014).
